Reference: ChEMBL document CHEMBL1201862, “PubChem BioAssay data set” (2004)
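Each compound was tested at five concentrations against cells in 96-well plates for 48 hours. GI50 is the concentration that inhibits growth by half.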 The source made the active and inactive calls. No stated cut-off is given here; in the data, active = GI50 up to about 1.1 µM and inactive = higher.

Legend:
Test in all cases: NCI anticancer screen, dose series, 48 h
[1] = system: DU-145
[2] = system: HL-60
[3] = system: MDA-MB-231
[4] = system: OVCAR-5
[5] = system: Hs-578T
[6] = system: UO-31
[7] = system: U-251
[8] = system: SW-620
[9] = system: SNB-19
[10] = system: SF-539
[11] = system: UACC-257
[12] = system: COLO 205
[13] = system: NCI-H23
[14] = system: M14
[15] = system: Malme-3M
[16] = system: HT-29
[17] = system: NCI-H522
[18] = system: OVCAR-8
[19] = system: NCI-H226

| SMILES | GI50 [1] | GI50 [2] | GI50 [3] | GI50 [4] | GI50 [5] | GI50 [6] | GI50 [7] | GI50 [8] | GI50 [9] | GI50 [10] | GI50 [11] | GI50 [12] | GI50 [13] | GI50 [14] | GI50 [15] | GI50 [16] | GI50 [17] | GI50 [18] | GI50 [19] |
| --- | --- | --- | --- | --- | --- | --- | --- | --- | --- | --- | --- | --- | --- | --- | --- | --- | --- | --- | --- |
| Clc1cccc(Cl)c1C1SCC2=Nc3ccccc3CN21 (centres undefined) | 25 µM (inactive) | 21.7 µM (inactive) | 42.9 µM (inactive) | 41.5 µM (inactive) | 24.8 µM (inactive) | 17.3 µM (inactive) | 33.2 µM (inactive) | 33.3 µM (inactive) | 5.18 µM (inactive) | 16.2 µM (inactive) | 34.7 µM (inactive) | 14.1 µM (inactive) | 14.6 µM (inactive) | 18.4 µM (inactive) | – | – | – | – | – |
| Cc1ccc(-c2c(C#N)c(-c3ccc(Cl)cc3)c(C#N)c(=O)n2NS(=O)(=O)c2ccccc2)cc1 | – | 73.1 µM (inactive) | > 100 µM (inactive) | > 100 µM (inactive) | 24.4 µM (inactive) | – | 74.8 µM (inactive) | > 100 µM (inactive) | 80.7 µM (inactive) | 44.9 µM (inactive) | > 100 µM (inactive) | > 100 µM (inactive) | – | > 100 µM (inactive) | > 100 µM (inactive) | > 100 µM (inactive) | 38.1 µM (inactive) | 76.4 µM (inactive) | 77.3 µM (inactive) |
| CNc1nc(N)c(N=O)c(Nc2ccc(Br)cc2)n1 | > 100 µM (inactive) | > 100 µM (inactive) | > 100 µM (inactive) | > 100 µM (inactive) | 5.35 µM (inactive) | 9.57 µM (inactive) | 61.8 µM (inactive) | > 100 µM (inactive) | > 100 µM (inactive) | > 100 µM (inactive) | > 100 µM (inactive) | > 100 µM (inactive) | > 100 µM (inactive) | – | > 100 µM (inactive) | > 100 µM (inactive) | > 100 µM (inactive) | > 100 µM (inactive) | – |
| C[C@H]1[C@H](N2CCCC2)O[Si](C(C)(C)C)(C(C)(C)C)[C@@H]1C | – | 13.7 µM (inactive) | > 100 µM (inactive) | > 100 µM (inactive) | – | > 100 µM (inactive) | > 100 µM (inactive) | > 100 µM (inactive) | 0.964 µM (active) | > 100 µM (inactive) | > 100 µM (inactive) | > 100 µM (inactive) | > 100 µM (inactive) | > 100 µM (inactive) | 59.2 µM (inactive) | > 100 µM (inactive) | > 100 µM (inactive) | > 100 µM (inactive) | > 100 µM (inactive) |
| COC(=O)[C@]1(C)CCC[C@@]2(C)C1CC[C@]13C=C(C(C)C)[C@H](CC21)CC3(Cl)C#N (some centres undefined) | 43.5 µM (inactive) | – | 42.2 µM (inactive) | > 100 µM (inactive) | > 100 µM (inactive) | 64.3 µM (inactive) | 19.8 µM (inactive) | 37.6 µM (inactive) | > 100 µM (inactive) | 78 µM (inactive) | 27.7 µM (inactive) | 41.6 µM (inactive) | 59.8 µM (inactive) | 38.4 µM (inactive) | 36.6 µM (inactive) | 27.4 µM (inactive) | 26.5 µM (inactive) | 45.9 µM (inactive) | 22.8 µM (inactive) |
| O=S1(=O)OCCOS(=O)(=O)C1(Br)Br | – | > 100 µM (inactive) | – | – | – | 62.7 µM (inactive) | – | > 100 µM (inactive) | 80.7 µM (inactive) | > 100 µM (inactive) | > 100 µM (inactive) | > 100 µM (inactive) | > 100 µM (inactive) | > 100 µM (inactive) | > 100 µM (inactive) | > 100 µM (inactive) | > 100 µM (inactive) | > 100 µM (inactive) | 0.375 µM (active) |
| C[C@@H]1OC(=O)C[C@H]2CC(=O)N(CCC3CN(C(=O)OCc4ccccc4)c4ccccc43)C[C@@H]21 (some centres undefined) | > 100 µM (inactive) | – | > 100 µM (inactive) | > 100 µM (inactive) | > 100 µM (inactive) | > 100 µM (inactive) | > 100 µM (inactive) | > 100 µM (inactive) | > 100 µM (inactive) | – | > 100 µM (inactive) | > 100 µM (inactive) | > 100 µM (inactive) | > 100 µM (inactive) | > 100 µM (inactive) | > 100 µM (inactive) | > 100 µM (inactive) | > 100 µM (inactive) | – |
| CCOC(=O)CCC(NC(=O)C(N)c1ccc([N+](=O)[O-])cc1)C(=O)NC(CCC(=O)OCC)C(=O)OCC (centres undefined) | – | > 100 µM (inactive) | > 100 µM (inactive) | > 100 µM (inactive) | > 100 µM (inactive) | > 100 µM (inactive) | > 100 µM (inactive) | > 100 µM (inactive) | > 100 µM (inactive) | – | > 100 µM (inactive) | > 100 µM (inactive) | > 100 µM (inactive) | > 100 µM (inactive) | > 100 µM (inactive) | > 100 µM (inactive) | – | > 100 µM (inactive) | > 100 µM (inactive) |
| NCc1ccc(-c2ccc(CN)s2)s1 | > 100 µM (inactive) | > 100 µM (inactive) | > 100 µM (inactive) | 56.2 µM (inactive) | – | > 100 µM (inactive) | > 100 µM (inactive) | > 100 µM (inactive) | > 100 µM (inactive) | > 100 µM (inactive) | 42.4 µM (inactive) | 23 µM (inactive) | > 100 µM (inactive) | > 100 µM (inactive) | > 100 µM (inactive) | > 100 µM (inactive) | > 100 µM (inactive) | 86.5 µM (inactive) | 41.1 µM (inactive) |
| N=C(N)NC(CC(=O)O)c1ccccc1 (centres undefined) | > 100 µM (inactive) | – | > 100 µM (inactive) | > 100 µM (inactive) | > 100 µM (inactive) | > 100 µM (inactive) | > 100 µM (inactive) | > 100 µM (inactive) | > 100 µM (inactive) | > 100 µM (inactive) | > 100 µM (inactive) | > 100 µM (inactive) | > 100 µM (inactive) | > 100 µM (inactive) | > 100 µM (inactive) | > 100 µM (inactive) | > 100 µM (inactive) | > 100 µM (inactive) | – |
| CSc1ccc(/C=C2\N=C(c3ccccc3)N(NC(=O)c3c(Cl)c(Cl)c(Cl)c(Cl)c3-c3nc4ccccc4[nH]3)C2=O)cc1 | 28.4 µM (inactive) | 23.7 µM (inactive) | – | 81.7 µM (inactive) | 34.8 µM (inactive) | 27.4 µM (inactive) | – | 29.9 µM (inactive) | 48.5 µM (inactive) | 33 µM (inactive) | 28.4 µM (inactive) | 22.4 µM (inactive) | 24.7 µM (inactive) | 29.6 µM (inactive) | 30.1 µM (inactive) | 36.2 µM (inactive) | 28.4 µM (inactive) | 37.8 µM (inactive) | 14.2 µM (inactive) |
| O=S(=O)(c1ccccc1)C1(CCC2OCCO2)C=CC2(CC1)OCCO2 (centres undefined) | > 100 µM (inactive) | > 100 µM (inactive) | > 100 µM (inactive) | > 100 µM (inactive) | – | > 100 µM (inactive) | > 100 µM (inactive) | > 100 µM (inactive) | > 100 µM (inactive) | – | > 100 µM (inactive) | > 100 µM (inactive) | > 100 µM (inactive) | > 100 µM (inactive) | > 100 µM (inactive) | > 100 µM (inactive) | – | > 100 µM (inactive) | > 100 µM (inactive) |
| O=c1c2cc(Br)ccc2oc2nc3n(c(=O)c12)CCCS3 | > 100 µM (inactive) | – | > 100 µM (inactive) | > 100 µM (inactive) | > 100 µM (inactive) | 39.2 µM (inactive) | > 100 µM (inactive) | > 100 µM (inactive) | > 100 µM (inactive) | > 100 µM (inactive) | > 100 µM (inactive) | > 100 µM (inactive) | > 100 µM (inactive) | > 100 µM (inactive) | > 100 µM (inactive) | – | > 100 µM (inactive) | > 100 µM (inactive) | > 100 µM (inactive) |
| O=C(c1cscc1CCc1ccccc1)c1cscc1CCc1ccccc1 | > 100 µM (inactive) | – | > 100 µM (inactive) | > 100 µM (inactive) | – | > 100 µM (inactive) | > 100 µM (inactive) | > 100 µM (inactive) | > 100 µM (inactive) | > 100 µM (inactive) | > 100 µM (inactive) | > 100 µM (inactive) | > 100 µM (inactive) | > 100 µM (inactive) | > 100 µM (inactive) | – | > 100 µM (inactive) | > 100 µM (inactive) | > 100 µM (inactive) |
| COc1ccc(CCc2nccn2C)cc1OC | – | > 100 µM (inactive) | – | > 100 µM (inactive) | > 100 µM (inactive) | > 100 µM (inactive) | – | > 100 µM (inactive) | > 100 µM (inactive) | > 100 µM (inactive) | > 100 µM (inactive) | > 100 µM (inactive) | > 100 µM (inactive) | > 100 µM (inactive) | > 100 µM (inactive) | > 100 µM (inactive) | – | > 100 µM (inactive) | – |
| C/C=C(/C)c1cnc(CC(C)C)c(=O)[nH]1 | > 100 µM (inactive) | – | > 100 µM (inactive) | > 100 µM (inactive) | > 100 µM (inactive) | > 100 µM (inactive) | > 100 µM (inactive) | > 100 µM (inactive) | > 100 µM (inactive) | – | > 100 µM (inactive) | > 100 µM (inactive) | > 100 µM (inactive) | – | – | > 100 µM (inactive) | – | > 100 µM (inactive) | – |
| CC(Nc1cccc(Cl)c1)c1ccncc1 (centres undefined) | 94.4 µM (inactive) | – | > 100 µM (inactive) | 51.5 µM (inactive) | > 100 µM (inactive) | 7.21 µM (inactive) | > 100 µM (inactive) | > 100 µM (inactive) | > 100 µM (inactive) | > 100 µM (inactive) | 74.1 µM (inactive) | > 100 µM (inactive) | 71.3 µM (inactive) | > 100 µM (inactive) | > 100 µM (inactive) | > 100 µM (inactive) | 83.6 µM (inactive) | 88.3 µM (inactive) | 44.3 µM (inactive) |
